Patent US20250270191A1, “QUINOLONE BCL6 BIFUNCTIONAL DEGRADERS” (Treeline Biosciences, Inc., priority 2022, published 2025)

Target: T1, Human BCL6 protein (N-terminal HiBiT tagged BCL6 in HT1080 cells) (Homo sapiens, UniProt P41182+Q96SW2)
T1 construct: Human BCL6 protein coding open reading frame; expressed in transfected cells; host or cells: HT1080 (ATCC CCL-121), stably transduced with lentivirus pLV-UBC-N-HiBiT-BCL6-PGK-puro
Experiment: HiBiT based BCL6 degradation assay
Type: cell-based
Conditions: HT1080 cells expressing N-terminal HiBiT tagged BCL6; 5 hours incubation; BCL6 degradation normalized with DMSO control
Method in brief: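 HT1080 cells stably expressing N-terminal HiBiT-BCL6 were treated with compound dilution series for 5 h at 37° C. in RPMI 1640 with 10% FBS. HiBiT lytic luminescence read after 15 min; degradation normalized to DMSO, with curves fitted by four-parameter logistic model.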

Compound	Ymin (5 hr)
CNC(=O)COc1cc2cc(Nc3nc(NCc4ccc(CNc5ccc6c(C7CCC(=O)NC7=O)nn(C)c6c5)cc4)ncc3Cl)ccc2n(C)c1=O (centres unmarked) [Compound 315, 2-((6-((5-chloro-2-((4-(((3-(2,6-dioxopiperidin-3-yl)-1-methyl-1H-indazol-6-yl)amino)methyl)benzyl)amino)pyrimidin-4-yl)amino)-1-methyl-2-oxo-1,2-dihydroquinolin-3-yl)oxy)-N-methylacetamide]	++ (50% < Ymin ≤ 70%)
CNC(=O)COc1cc2cc(Nc3nc(N4CCC(OC5CCN(c6cccc7c(C8CCC(=O)NC8=O)nn(C)c67)CC5)CC4)ncc3Cl)ccc2n(C)c1=O (centres unmarked) [Compound 316, 2-((6-((5-chloro-2-(4-((1-(3-(2,6-dioxopiperidin-3-yl)-1-methyl-1H-indazol-7-yl)piperidin-4-yl)oxy)piperidin-1-yl)pyrimidin-4-yl)amino)-1-methyl-2-oxo-1,2-dihydroquinolin-3-yl)oxy)-N-methylacetamide]	++++ (Ymin ≤ 25%)
CNC(=O)COc1cc2cc(Nc3nc(N4CCO[C@H](COc5ccc6c(C7CCC(=O)NC7=O)nn(C)c6c5)C4)ncc3Cl)ccc2n(C)c1=O (stereo partly drawn) [Compound 317a, 2-((6-((5-chloro-2-((2S)-2-(((3-(2,6-dioxopiperidin-3-yl)-1-methyl-1H-indazol-6-yl)oxy)methyl)morpholino)pyrimidin-4-yl)amino)-1-methyl-2-oxo-1,2-dihydroquinolin-3-yl)oxy)-N-methylacetamide]	+++ (25% < Ymin ≤ 50%)
CNC(=O)COc1cc2cc(Nc3nc(NCc4ccc(CNc5cccc6c(C7CCC(=O)NC7=O)nn(C)c56)cc4)ncc3Cl)ccc2n(C)c1=O (centres unmarked) [Compound 318, 2-((6-((5-chloro-2-((4-(((3-(2,6-dioxopiperidin-3-yl)-1-methyl-1H-indazol-7-yl)amino)methyl)benzyl)amino)pyrimidin-4-yl)amino)-1-methyl-2-oxo-1,2-dihydroquinolin-3-yl)oxy)-N-methylacetamide]	++ (50% < Ymin ≤ 70%)
CNC(=O)COc1cc2cc(Nc3nc(N4CCC(CCCCOc5ccc6c(C7CCC(=O)NC7=O)nn(C)c6c5)CC4)ncc3Cl)ccc2n(C)c1=O (centres unmarked) [Compound 319, 2-((6-((5-chloro-2-(4-(4-((3-(2,6-dioxopiperidin-3-yl)-1-methyl-1H-indazol-6-yl)oxy)butyl)piperidin-1-yl)pyrimidin-4-yl)amino)-1-methyl-2-oxo-1,2-dihydroquinolin-3-yl)oxy)-N-methylacetamide]	++ (50% < Ymin ≤ 70%)
CNC(=O)COc1cc2cc(Nc3nc(N4CCC(CC5CCN(c6cccc7c(C8CCC(=O)NC8=O)nn(C)c67)C5)CC4)ncc3Cl)ccc2n(C)c1=O (centres unmarked) [Compound 320, 2-((6-((5-chloro-2-(4-((1-(3-(2,6-dioxopiperidin-3-yl)-1-methyl-1H-indazol-7-yl)pyrrolidin-3-yl)methyl)piperidin-1-yl)pyrimidin-4-yl)amino)-1-methyl-2-oxo-1,2-dihydroquinolin-3-yl)oxy)-N-methylacetamide]	+++ (25% < Ymin ≤ 50%)
CNC(=O)COc1cc2cc(Nc3nc(N4CCN(CC5CCN(C(=O)c6ccc7c(C8CCC(=O)NC8=O)nn(C)c7c6)CC5)CC4)ncc3Cl)ccc2n(C)c1=O (centres unmarked) [Compound 321, 2-((6-((5-chloro-2-(4-((1-(3-(2,6-dioxopiperidin-3-yl)-1-methyl-1H-indazole-6-carbonyl)piperidin-4-yl)methyl)piperazin-1-yl)pyrimidin-4-yl)amino)-1-methyl-2-oxo-1,2-dihydroquinolin-3-yl)oxy)-N-methylacetamide]	+++ (25% < Ymin ≤ 50%)
CNC(=O)COc1cc2cc(Nc3nc(N4CCC(CN5CCN(C(=O)c6ccc7c(C8CCC(=O)NC8=O)nn(C)c7c6)CC5)CC4)ncc3Cl)ccc2n(C)c1=O (centres unmarked) [Compound 322, 2-((6-((5-chloro-2-(4-((4-(3-(2,6-dioxopiperidin-3-yl)-1-methyl-1H-indazole-6-carbonyl)piperazin-1-yl)methyl)piperidin-1-yl)pyrimidin-4-yl)amino)-1-methyl-2-oxo-1,2-dihydroquinolin-3-yl)oxy)-N-methylacetamide]	+++ (25% < Ymin ≤ 50%)
CNC(=O)COc1cc2cc(Nc3nc(N4CCN(CC5CCN(C(=O)c6cccc7c(C8CCC(=O)NC8=O)nn(C)c67)CC5)CC4)ncc3Cl)ccc2n(C)c1=O (centres unmarked) [Compound 323, 2-((6-((5-chloro-2-(4-((1-(3-(2,6-dioxopiperidin-3-yl)-1-methyl-1H-indazole-7-carbonyl)piperidin-4-yl)methyl)piperazin-1-yl)pyrimidin-4-yl)amino)-1-methyl-2-oxo-1,2-dihydroquinolin-3-yl)oxy)-N-methylacetamide]	+++ (25% < Ymin ≤ 50%)
CNC(=O)COc1cc2cc(Nc3nc(N4CCC(CN5CCN(C(=O)c6cccc7c(C8CCC(=O)NC8=O)nn(C)c67)CC5)CC4)ncc3Cl)ccc2n(C)c1=O (centres unmarked) [Compound 324, 2-((6-((5-chloro-2-(4-((4-(3-(2,6-dioxopiperidin-3-yl)-1-methyl-1H-indazole-7-carbonyl)piperazin-1-yl)methyl)piperidin-1-yl)pyrimidin-4-yl)amino)-1-methyl-2-oxo-1,2-dihydroquinolin-3-yl)oxy)-N-methylacetamide]	+++ (25% < Ymin ≤ 50%)
CNC(=O)COc1cc2cc(Nc3nc(N4C5CCC4CN(CC4CCN(c6cccc7c(C8CCC(=O)NC8=O)nn(C)c67)CC4)C5)ncc3Cl)ccc2n(C)c1=O (centres unmarked) [Compound 325, 2-((6-((5-chloro-2-(3-((1-(3-(2,6-dioxopiperidin-3-yl)-1-methyl-1H-indazol-7-yl)piperidin-4-yl)methyl)-3,8-diazabicyclo[3.2.1]octan-8-yl)pyrimidin-4-yl)amino)-1-methyl-2-oxo-1,2-dihydroquinolin-3-yl)oxy)-N-methylacetamide]	+++ (25% < Ymin ≤ 50%)
CNC(=O)COc1cc2cc(Nc3nc(N4CCC5CN(c6cccc7c(C8CCC(=O)NC8=O)nn(C)c67)CC5C4)ncc3Cl)ccc2n(C)c1=O (centres unmarked) [Compound 326, 2-((6-((5-chloro-2-(2-(3-(2,6-dioxopiperidin-3-yl)-1-methyl-1H-indazol-7-yl)octahydro-5H-pyrrolo[3,4-c]pyridin-5-yl)pyrimidin-4-yl)amino)-1-methyl-2-oxo-1,2-dihydroquinolin-3-yl)oxy)-N-methylacetamide]	+++ (25% < Ymin ≤ 50%)
CNC(=O)COc1cc2cc(Nc3nc(N4CCC(C(=O)N5CCN(c6cccc7c(C8CCC(=O)NC8=O)nn(C)c67)CC5)CC4)ncc3Cl)ccc2n(C)c1=O (centres unmarked) [Compound 327, 2-((6-((5-chloro-2-(4-(4-(3-(2,6-dioxopiperidin-3-yl)-1-methyl-1H-indazol-7-yl)piperazine-1-carbonyl)piperidin-1-yl)pyrimidin-4-yl)amino)-1-methyl-2-oxo-1,2-dihydroquinolin-3-yl)oxy)-N-methylacetamide]	++++ (Ymin ≤ 25%)
CNC(=O)COc1cc2cc(Nc3nc(N4CCC(C(=O)N5CCN(c6ccc7c(C8CCC(=O)NC8=O)nn(C)c7c6)CC5)CC4)ncc3Cl)ccc2n(C)c1=O (centres unmarked) [Compound 328, 2-((6-((5-chloro-2-(4-(4-(3-(2,6-dioxopiperidin-3-yl)-1-methyl-1H-indazol-6-yl)piperazine-1-carbonyl)piperidin-1-yl)pyrimidin-4-yl)amino)-1-methyl-2-oxo-1,2-dihydroquinolin-3-yl)oxy)-N-methylacetamide]	++++ (Ymin ≤ 25%)
